Numbered stars: 1 amine (or outer) side, 2 acyl side, 3 side chain; on linkers, the order of the positions; unused ones are H or OH. Bridge positions count the residues as written; N and C are the ends. Square brackets hold non-standard residues; d marks the D form. Peptide text beside a SMILES is read from it. * marks the point of attachment. ξ: configuration not given here. X1 = C[C@@]1(C(=O)C[C@@H](Cc2ccccc2)C(=O)[*:2])CCCN1[*:1]; DOTA = O=C(O)CN1CCN(CC(=O)O)CCN(CC(=O)*)CCN(CC(=O)O)CC1; Phe(2-Cl) = N[C@@H](Cc1ccccc1Cl)C(=O)O; 1Nal = N[C@@H](Cc1cccc2ccccc12)C(=O)O; 2Nal = N[C@@H](Cc1ccc2ccccc2c1)C(=O)O; Phe(2-F) = N[C@@H](Cc1ccccc1F)C(=O)O; Phe(2-Me) = Cc1ccccc1C[C@H](N)C(=O)O; Chg = N[C@H](C(=O)O)C1CCCCC1; Pen = CC(C)(S)[C@H](N)C(=O)O; αMeP = C[C@@]1(C(=O)O)CCCN1; NMeC = CN[C@@H](CS)C(=O)O; CH2 = C([*:1])[*:2]; ξC = NC(CS)C(=O)O
Target: T1, human DLL3 (Homo sapiens, UniProt Q9NYJ7)
T1 construct: biotin (biotinylated)
T1 sequence (Q9NYJ7 27-618): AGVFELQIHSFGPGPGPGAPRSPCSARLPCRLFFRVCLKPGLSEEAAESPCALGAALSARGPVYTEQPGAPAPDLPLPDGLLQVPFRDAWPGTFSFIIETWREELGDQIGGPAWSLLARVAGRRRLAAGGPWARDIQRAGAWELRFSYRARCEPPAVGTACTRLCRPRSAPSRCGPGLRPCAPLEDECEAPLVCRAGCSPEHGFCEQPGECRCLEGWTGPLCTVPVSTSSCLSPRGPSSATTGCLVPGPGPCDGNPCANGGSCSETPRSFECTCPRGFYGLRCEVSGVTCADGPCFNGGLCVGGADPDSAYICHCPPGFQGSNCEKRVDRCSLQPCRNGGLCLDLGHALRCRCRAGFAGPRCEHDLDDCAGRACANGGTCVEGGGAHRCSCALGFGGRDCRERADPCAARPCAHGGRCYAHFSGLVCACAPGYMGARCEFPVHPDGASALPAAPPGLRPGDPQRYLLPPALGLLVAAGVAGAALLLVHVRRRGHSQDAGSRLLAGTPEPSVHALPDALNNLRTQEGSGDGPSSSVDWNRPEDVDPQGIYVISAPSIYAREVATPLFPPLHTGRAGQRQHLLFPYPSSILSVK
Test: Affinity determination by Surface Plasmon Resonance (SPR), Biacore, 1:1 binding model
Settings: biotinylated human DLL3 on streptavidin chip, 25° C.; NB = nonbinding
In short: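 SPR with biotinylated human DLL3 captured on a streptavidin chip, with a reference surface subtracted. Samples were injected at several concentrations at 100 μL/min in phosphate buffer with 137 mM NaCl, 2.7 mM KCl, 0.05% P20 and 2% DMSO. Kinetic and affinity constants came from a 1:1 binding fit.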

Q: With CC(=O)N[C@H](C(=O)N[C@@H](CO)C(=O)N[C@@H](CC(=O)O)C(=O)N[C@H]1CSSC[C@@H](C(=O)N2CCC[C@H]2C(=O)N[C@@H](Cc2ccccc2)C(=O)N[C@@H](CC(=O)O)C(=O)N[C@H](CCCCNC(=O)CN2CCN(CC(=O)O)CCN(CC(=O)O)CCN(CC(=O)O)CC2)C(N)=O)N(C)C(=O)[C@H](CC(N)=O)NC(=O)[C@H](Cc2c[nH]c3ccccc23)NC(=O)[C@H](CCC(N)=O)NC(=O)[C@H](CC(C)C)NC(=O)[C@H](Cc2cccc3ccccc23)NC1=O)C1CCCCC1 [compound 115, Ac-(Chg)-S-D-C(3)-(1Nal)-L-Q-W-N-(NMe-Cys)-P-F-D-D-Lys(DOTA)-CONH2] (Ac-[Chg]SDC[1Nal]LQWN[NMeC]PFD[dK](DOTA)-NH2; disulfide 4-10) as the molecule, how does the Kd read?
A: > 100 nM

Q: With CC(=O)N[C@H](C(=O)N[C@@H](CO)C(=O)N[C@@H](CC(=O)O)C(=O)N[C@H]1CSSC[C@@H](C(=O)N2CCC[C@@H]2C(=O)N[C@@H](Cc2ccccc2)C(=O)N[C@@H](CC(=O)O)C(=O)N[C@H](CCCCNC(=O)CN2CCN(CC(=O)O)CCN(CC(=O)O)CCN(CC(=O)O)CC2)C(N)=O)NC(=O)[C@H](CC(N)=O)NC(=O)[C@H](Cc2c[nH]c3ccccc23)NC(=O)[C@H](CCC(N)=O)NC(=O)[C@H](CC(C)C)NC(=O)[C@H](Cc2cccc3ccccc23)NC1=O)C1CCCCC1 [compound 116, Ac-(Chg)-S-D-C(3)-(1Nal)-L-Q-W-N-C(3)-(D-Pro)-F-D-D-Lys(DOTA)-CONH2] (Ac-[Chg]SDC[1Nal]LQWNC[dP]FD[dK](DOTA)-NH2; disulfide 4-10) as the molecule, how does the Kd read?
A: > 30 nM

Q: How did the Kd turn out when CC(=O)N[C@H](C(=O)N[C@@H](CO)C(=O)N[C@@H](CC(=O)O)C(=O)N[C@H]1CSSC[C@@H](C(=O)N2CCC[C@@]2(C)C(=O)N[C@@H](Cc2ccccc2F)C(=O)N[C@@H](CC(=O)O)C(=O)N[C@H](CCCCNC(=O)CN2CCN(CC(=O)O)CCN(CC(=O)O)CCN(CC(=O)O)CC2)C(N)=O)NC(=O)[C@H](CC(N)=O)NC(=O)[C@H](Cc2c[nH]c3ccccc23)NC(=O)[C@H](CCC(N)=O)NC(=O)[C@H](CC(C)C)NC(=O)[C@H](Cc2cccc3ccccc23)NC1=O)C1CCCCC1 [compound 117, Ac-(Chg)-S-D-C(3)-(1Nal)-L-Q-W-N-C(3)-(aMe-P)-(2F-Phe)-D-D-Lys(DOTA)-CONH2] (Ac-[Chg]SDC[1Nal]LQWNC[αMeP][Phe(2-F)]D[dK](DOTA)-NH2; disulfide 4-10) was run?
A: 0.66 nM

Q: For CC(=O)N[C@H](C(=O)N[C@@H](CO)C(=O)N[C@@H](CC(=O)O)C(=O)N[C@H]1CSSC[C@@H](C(=O)N2CCC[C@@]2(C)C(=O)N[C@@H](Cc2ccccc2Cl)C(=O)N[C@@H](CC(=O)O)C(=O)N[C@H](CCCCNC(=O)CN2CCN(CC(=O)O)CCN(CC(=O)O)CCN(CC(=O)O)CC2)C(N)=O)NC(=O)[C@H](CC(N)=O)NC(=O)[C@H](Cc2c[nH]c3ccccc23)NC(=O)[C@H](CCC(N)=O)NC(=O)[C@H](CC(C)C)NC(=O)[C@H](Cc2cccc3ccccc23)NC1=O)C1CCCCC1 [compound 118, Ac-(Chg)-S-D-C(3)-(1Nal)-L-Q-W-N-C(3)-(aMe-P)-(2Cl-Phe)-D-D-Lys(DOTA)-CONH2] (Ac-[Chg]SDC[1Nal]LQWNC[αMeP][Phe(2-Cl)]D[dK](DOTA)-NH2; disulfide 4-10), which Kd is on record?
A: 0.74 nM

Q: CC(=O)N[C@H](C(=O)N[C@@H](CO)C(=O)N[C@@H](CC(=O)O)C(=O)N[C@H]1CSSC[C@@H](C(=O)N2CCC[C@@]2(C)C(=O)N[C@@H](Cc2ccccc2C)C(=O)N[C@@H](CC(=O)O)C(=O)N[C@H](CCCCNC(=O)CN2CCN(CC(=O)O)CCN(CC(=O)O)CCN(CC(=O)O)CC2)C(N)=O)NC(=O)[C@H](CC(N)=O)NC(=O)[C@H](Cc2c[nH]c3ccccc23)NC(=O)[C@H](CCC(N)=O)NC(=O)[C@H](CC(C)C)NC(=O)[C@H](Cc2cccc3ccccc23)NC1=O)C1CCCCC1 [compound 119, Ac-(Chg)-S-D-C(3)-(1Nal)-L-Q-W-N-C(3)-(aMe-P)-(2Me-Phe)-D-D-Lys(DOTA)-CONH2] (Ac-[Chg]SDC[1Nal]LQWNC[αMeP][Phe(2-Me)]D[dK](DOTA)-NH2; disulfide 4-10) was tested. Which Kd did it give?
A: 0.65 nM

Q: Which Kd does the source give for CC(=O)N[C@H](C(=O)N[C@@H](CO)C(=O)N[C@@H](CC(=O)O)C(=O)N[C@H]1CSSC(C)(C)[C@@H](C(=O)N2CCC[C@@]2(C)C(=O)N[C@@H](Cc2ccccc2)C(=O)N[C@@H](CC(=O)O)C(=O)N[C@H](CCCCNC(=O)CN2CCN(CC(=O)O)CCN(CC(=O)O)CCN(CC(=O)O)CC2)C(N)=O)NC(=O)[C@H](CC(N)=O)NC(=O)[C@H](Cc2c[nH]c3ccccc23)NC(=O)[C@H](CCC(N)=O)NC(=O)[C@H](CC(C)C)NC(=O)[C@H](Cc2cccc3ccccc23)NC1=O)C1CCCCC1 [compound 120, Ac-(Chg)-S-D-C(3)-(1Nal)-L-Q-W-N-Pen(3)-(aMe-P)-F-D-D-Lys(DOTA)-CONH2] (Ac-[Chg]SDC[1Nal]LQWN[Pen][αMeP]FD[dK](DOTA)-NH2; disulfide 4-10) here?
A: > 30 nM

Q: With CC(=O)N[C@H](C(=O)N[C@@H](CO)C(=O)N[C@@H](CC(=O)O)C(=O)NC1CSCSC[C@@H](C(=O)N2CCC[C@@]2(C)C(=O)N[C@@H](Cc2ccccc2)C(=O)N[C@@H](CC(=O)O)C(=O)N[C@H](CCCCNC(=O)CN2CCN(CC(=O)O)CCN(CC(=O)O)CCN(CC(=O)O)CC2)C(N)=O)NC(=O)[C@H](CC(N)=O)NC(=O)[C@H](Cc2c[nH]c3ccccc23)NC(=O)[C@H](CCC(N)=O)NC(=O)[C@H](CC(C)C)NC(=O)[C@H](Cc2cccc3ccccc23)NC1=O)C1CCCCC1 (stereo partly drawn) [compound 121, Ac-(Chg)-S-D-[D-Cys(1)]-(1Nal)-L-Q-W-N-C(1)-(aMe-P)-F-D-D-Lys(DOTA)-CONH2] (Ac-[Chg]SD[ξC][1Nal]LQWNC[αMeP]FD[dK](DOTA)-NH2; linker 4-10 via CH2) as the molecule, how does the Kd read?
A: > 30 nM

Q: With CC(=O)N[C@H](C(=O)N[C@@H](CO)C(=O)N[C@@H](CC(=O)O)C(=O)N[C@H]1CSCSC[C@H](C(=O)N2CCC[C@@]2(C)C(=O)N[C@@H](Cc2ccccc2)C(=O)N[C@@H](CC(=O)O)C(=O)N[C@H](CCCCNC(=O)CN2CCN(CC(=O)O)CCN(CC(=O)O)CCN(CC(=O)O)CC2)C(N)=O)NC(=O)[C@H](CC(N)=O)NC(=O)[C@H](Cc2c[nH]c3ccccc23)NC(=O)[C@H](CCC(N)=O)NC(=O)[C@H](CC(C)C)NC(=O)[C@H](Cc2cccc3ccccc23)NC1=O)C1CCCCC1 [compound 122, Ac-(Chg)-S-D-C(1)-(1Nal)-L-Q-W-N-[D-Cys(1)]-(aMe-P)-F-D-D-Lys(DOTA)-CONH2] (Ac-[Chg]SDC[1Nal]LQWN[dC][αMeP]FD[dK](DOTA)-NH2; linker 4-10 via CH2) as the molecule, how does the Kd read?
A: > 30 nM

Q: How did the Kd turn out when CC(=O)N[C@H](C(=O)N[C@@H](CO)C(=O)N[C@@H](CC(=O)O)C(=O)N[C@H]1CSSC[C@@H](C(=O)N2CCC[C@@]2(C)C(=O)N[C@@H](Cc2ccccc2)C(=O)N[C@@H](CC(=O)O)C(=O)N[C@H](CCCCNC(=O)CN2CCN(CC(=O)O)CCN(CC(=O)O)CCN(CC(=O)O)CC2)C(N)=O)NC(=O)[C@H](CC(N)=O)NC(=O)[C@H](Cc2c[nH]c3ccccc23)NC(=O)[C@H](CCC(N)=O)NC(=O)[C@H](C2CCCCC2)NC(=O)[C@H](Cc2cccc3ccccc23)NC1=O)C1CCCCC1 [compound 123, Ac-(Chg)-S-D-C(3)-(1Nal)-Chg-Q-W-N-C(3)-(aMe-P)-F-D-D-Lys(DOTA)-CONH2] (Ac-[Chg]SDC[1Nal][Chg]QWNC[αMeP]FD[dK](DOTA)-NH2; disulfide 4-10) was run?
A: 0.34 nM

Q: How did the Kd turn out when CC(=O)N[C@H](C(=O)N[C@@H](CO)C(=O)N[C@@H](CC(=O)O)C(=O)N[C@H]1CSSC[C@@H](C(=O)N2CCC[C@@]2(C)C(=O)N[C@@H](Cc2ccccc2)C(=O)N[C@@H](CC(=O)O)C(=O)N[C@H](CCCCNC(=O)CN2CCN(CC(=O)O)CCN(CC(=O)O)CCN(CC(=O)O)CC2)C(N)=O)NC(=O)[C@H](CC(N)=O)NC(=O)[C@H](Cc2ccc3ccccc3c2)NC(=O)[C@H](CCC(N)=O)NC(=O)[C@H](CC(C)C)NC(=O)[C@H](Cc2cccc3ccccc23)NC1=O)C1CCCCC1 [compound 124, Ac-(Chg)-S-D-C(3)-(1Nal)-L-Q-(2Nal)-N-C(3)-(aMe-P)-F-D-D-Lys(DOTA)-CONH2] (Ac-[Chg]SDC[1Nal]LQ[2Nal]NC[αMeP]FD[dK](DOTA)-NH2; disulfide 4-10) was run?
A: 0.15 nM

Q: CC(=O)N[C@H](C)C(=O)N[C@H](CO)C(=O)N[C@@H](CC(=O)O)C(=O)N[C@H]1CSSC[C@@H](C(=O)N2CCC[C@@]2(C)C(=O)C[C@@H](Cc2ccccc2)C(=O)N[C@@H](CC(=O)O)C(=O)N[C@H](CCCCNC(=O)CN2CCN(CC(=O)O)CCN(CC(=O)O)CCN(CC(=O)O)CC2)C(N)=O)NC(=O)[C@H](CC(N)=O)NC(=O)[C@H](Cc2ccc3ccccc3c2)NC(=O)[C@H](CCC(N)=O)NC(=O)[C@H](C2CCCCC2)NC(=O)[C@H](Cc2cccc3ccccc23)NC1=O [compound 126, Ac-(D-Ala)-(D-Ser)-D-C(3)-(1Nal)-(Chg)-Q-(2Nal)-N-C(3)-(aMe-P)-F-D-D-Lys(DOTA)-CONH2] (Ac-[dA][dS]DC[1Nal][Chg]Q[2Nal]NC[X1]D[dK](DOTA)-NH2; disulfide 4-10) was tested. Which Kd did it give?
A: 0.26 nM

Source: patent publication US20250186541A1, “DLL3 TARGETING PEPTIDES AND CONSTRUCTS THEREOF” (MARIANA ONCOLOGY INC., priority 2023, published 2025)
